Values quoted from earlier work in publication PMC7449315 (Journal for Immunotherapy of Cancer, 2020).

Conditions: early phase I studies, single agent; ref 28 30 31; cited from earlier work

Compound | best overall response
NS(=O)(=O)NCCNc1nonc1C(=NO)Nc1ccc(F)c(Br)c1 [epacadostat] | stable disease
Cn1cc(C[C@@H](N)C(=O)O)c2ccccc21 [indoximod] | stable disease
O[C@H](C[C@H]1c2c(F)cccc2-c2cncn21)[C@H]1CC[C@H](O)CC1 [navoximod] | stable disease
